Experimental data taken from US20230085307A1, “PYRIDAZINONE COMPOUND AND HERBICIDE” (NISSAN CHEMICAL CORPORATION, priority 2019, published 2023).

Columns and labels:
[1] = tested on: chickweed; assay: Test Example 5: herbicidal effect by foliage application, plastic box (Table 20, symbol P); assay type: in vivo, common chickweed (Stellaria media); details: foliage application, 320 g/ha; for P: chickweed, herbicidal effect grade: three weeks after application
Procedure, shortened: (§1)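 Foliar spray test: emulsion formulation diluted in water to a set application rate, sprayed onto 14-day-old plants raised in diluvial soil at 25° C to 30° C under glass. Both herbicidal effect and crop effect rated visually three weeks later.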

[2] = tested on: barnyard grass; assay: Test Example 5: herbicidal effect by foliage application, plastic box (Table 20, symbol H); assay type: in vivo, barnyard grass (Echinochloa crus-galli); details: foliage application, 320 g/ha; for H: barnyard grass, herbicidal effect grade: three weeks after application
Procedure, shortened: as §1

[3] = tested on: windgrass; assay: Test Example 4: herbicidal effect by soil treatment (Table 19, symbol L); assay type: in vivo, windgrass (Apera spica-venti); details: amount of applied herbicide 320 g/ha
Procedure, shortened: (§2)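 Herbicidal effect was rated 3 weeks after treatment, using the scoring criteria of an earlier test. The compound, formulated as an emulsion and diluted in water to a set herbicide amount, had been sprayed uniformly on soil over freshly sown seeds. Growth took place in a greenhouse at 25° C. to 30° C.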

[4] = tested on: oval-leafed pondweed; assay: Test Example 2: herbicidal activity, application during weed generation under submerged conditions (Table 17, symbol C); assay type: in vivo, oval-leafed pondweed (Monochoria vaginalis); details: for herbicidal effect rating, C: oval-leafed pondweed: AAH 320 g/ha, application during weed generation, submerged conditions
Procedure, shortened: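 Wagner pot, alluvial soil, 4 cm flood; mixed sowing of all species; greenhouse 25° C.–30° C. Emulsifiable formulation, water-diluted to predetermined dose, applied to paddy water at 1–2 leaf stage. Effect rated at 3 wk using the earlier test's scoring criteria.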

[5] = tested on: false cleavers; assay: Test Example 4: herbicidal effect by soil treatment (Table 19, symbol Q); assay type: in vivo, false cleavers (Galium spurium); details: amount of applied herbicide 320 g/ha
Procedure, shortened: as §2

[6] = tested on: velvetleaf; assay: Test Example 4: herbicidal effect by soil treatment (Table 19, symbol M); assay type: in vivo, velvetleaf (Abutilon theophrasti); details: amount of applied herbicide 320 g/ha
Procedure, shortened: as §2

[7] = tested on: persian speedwell; assay: Test Example 4: herbicidal effect by soil treatment (Table 19, symbol R); assay type: in vivo, Persian speedwell (Veronica persica); details: amount of applied herbicide 320 g/ha
Procedure, shortened: as §2

[8] = tested on: Italian ryegrass; assay: Test Example 5: herbicidal effect by foliage application, plastic box (Table 20, symbol K); assay type: in vivo, Italian ryegrass (Lolium multiflorum); details: foliage application, 320 g/ha; for K: Italian ryegrass, herbicidal effect grade: three weeks after application
Procedure, shortened: as §1

[9] = tested on: wild oat; assay: Test Example 4: herbicidal effect by soil treatment (Table 19, symbol I); assay type: in vivo, wild oat (Avena fatua); details: amount of applied herbicide 320 g/ha
Procedure, shortened: as §2

[10] = tested on: Chinese sprangletop; assay: Test Example 3: herbicidal effect by foliage application, Wagner pot (Table 18, symbol D); assay type: in vivo, chinese sprangletop (Leptochloa chinensis)
Procedure, shortened: (§3)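 Plants were sown in alluvial soil held under 0.1–0.5 cm standing water and grown 14 days in a greenhouse at 25–30 °C. An emulsifiable formulation, water-diluted to the set dose, was then sprayed onto the foliage, and effects were scored three weeks later using previously defined criteria.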

[11] = tested on: lambsquarters; assay: Test Example 4: herbicidal effect by soil treatment (Table 19, symbol O); assay type: in vivo, lambsquarters (Chenopodium album); details: amount of applied herbicide 320 g/ha
Procedure, shortened: as §2

[12] = tested on: late watergrass; assay: Test Example 1: herbicidal activity, application before weed generation under submerged conditions (Table 16, symbol A); assay type: in vivo, late watergrass (Echinochloa oryzicola); details: amount of applied herbicide 320 g/ha
Procedure, shortened: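 Alluvial soil was flooded to 4 cm depth, weed seeds were sown mixed and 2.5-leaf rice seedlings were transplanted. On sowing day, the compound's emulsion, diluted in water to a set dose, was applied to the water surface. Plants grew at 25–30 °C and were scored 0–5 after three weeks.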

[13] = tested on: rice flat sedge; assay: Test Example 3: herbicidal effect by foliage application, Wagner pot (Table 18, symbol E); assay type: in vivo, rice flat sedge (Cyperus iria)
Procedure, shortened: as §3

[14] = tested on: green foxtail; assay: Test Example 4: herbicidal effect by soil treatment (Table 19, symbol G); assay type: in vivo, green foxtail (Setaria viridis); details: amount of applied herbicide 320 g/ha
Procedure, shortened: as §2

[15] = tested on: Italian ryegrass; assay: Test Example 4: herbicidal effect by soil treatment (Table 19, symbol K); assay type: in vivo, Italian ryegrass (Lolium multiflorum); details: amount of applied herbicide 320 g/ha
Procedure, shortened: as §2

[16] = tested on: velvetleaf; assay: Test Example 5: herbicidal effect by foliage application, plastic box (Table 20, symbol M); assay type: in vivo, velvetleaf (Abutilon theophrasti); details: foliage application, 320 g/ha; for M: velvetleaf, herbicidal effect grade: three weeks after application
Procedure, shortened: as §1

[17] = tested on: windgrass; assay: Test Example 5: herbicidal effect by foliage application, plastic box (Table 20, symbol L); assay type: in vivo, windgrass (Apera spica-venti); details: foliage application, 320 g/ha; for L: windgrass, herbicidal effect grade: three weeks after application
Procedure, shortened: as §1

[18] = amount of applied herbicide 320 g/ha
[19] = evaluated 3 weeks after application

Compound	P: chickweed, herbicidal effect grade [1]	H: barnyard grass, herbicidal effect grade [2]	herbicidal effect, L: windgrass [3]	herbicidal effect rating, C: oval-leafed pondweed [4]	herbicidal effect, Q: false cleavers [5]	herbicidal effect, M: velvetleaf [6]	herbicidal effect, R: persian speedwell [7]	K: Italian ryegrass, herbicidal effect grade [8]	herbicidal effect, I: wild oat [9]	herbicidal effect on D: Chinese sprangletop [10, 18]	herbicidal effect, O: lambsquarters [11]	Herbicidal effect, A: late watergrass [12]	herbicidal effect on E: rice flat sedge [13, 18]	herbicidal effect, G: green foxtail [14]	herbicidal effect, K: Italian ryegrass [15]	M: velvetleaf, herbicidal effect grade [16]	L: windgrass, herbicidal effect grade [17]	L: windgrass, herbicidal effect grade [3]	Q: false cleavers, herbicidal effect grade [5]	M: velvetleaf, herbicidal effect grade [6]	also measured
COc1ccccc1-c1sc2cc(F)ccc2c1-c1c(O)c(C)nn(C)c1=O [3-003]	5 (Herbicidal rate of 90% or more (almost completely withered))	5 (Herbicidal rate of 90% or more (almost completely withered))	3 (Herbicidal rate of 40% or more and less than 70%)	4 (Herbicidal rate of 70% or more and less than 90%)	4 (Herbicidal rate of 70% or more and less than 90%)	3 (Herbicidal rate of 40% or more and less than 70%)	4 (Herbicidal rate of 70% or more and less than 90%)	5 (Herbicidal rate of 90% or more (almost completely withered))	4 (Herbicidal rate of 70% or more and less than 90%)	3 (Herbicidal rate of 40% or more and less than 70%)	4 (Herbicidal rate of 70% or more and less than 90%)	3 (Herbicidal rate of 40% or more and less than 70%)	5 (Herbicidal rate of 90% or more (almost completely withered))	5 (Herbicidal rate of 90% or more (almost completely withered))	4 (Herbicidal rate of 70% or more and less than 90%)	5 (Herbicidal rate of 90% or more (almost completely withered))	5 (Herbicidal rate of 90% or more (almost completely withered))	–	–	–	–
CCCC(=O)Oc1c(C)nn(C)c(=O)c1-c1c(-c2ccc(OC)cc2)sc2cc(OC)ccc12 [3-069]	5 (Herbicidal rate of 90% or more (almost completely withered))	2 (Herbicidal rate of 20% or more and less than 40%)	–	4 (Herbicidal rate of 70% or more and less than 90%)	–	–	–	3 (Herbicidal rate of 40% or more and less than 70%)	–	–	–	0 (Herbicidal rate of 5% or less (almost no effect))	–	–	–	5 (Herbicidal rate of 90% or more (almost completely withered))	3 (Herbicidal rate of 40% or more and less than 70%)	0 (Herbicidal rate of 5% or less (almost no effect))	0 (Herbicidal rate of 5% or less (almost no effect))	0 (Herbicidal rate of 5% or less (almost no effect))	R: persian speedwell, herbicidal effect grade [7]: 4 (Herbicidal rate of 70% or more and less than 90%); I: wild oat, herbicidal effect grade [9]: 0 (Herbicidal rate of 5% or less (almost no effect)); herbicidal effect on Chinese sprangletop (D) ([10]; 320 g/ha): 0 (Herbicidal rate of 5% or less (almost no effect)); O: lambsquarters, herbicidal effect grade [11]: 0 (Herbicidal rate of 5% or less (almost no effect)); herbicidal effect on rice flat sedge (E) ([13]; 320 g/ha): 3 (Herbicidal rate of 40% or more and less than 70%); G: green foxtail, herbicidal effect grade [14]: 2 (Herbicidal rate of 20% or more and less than 40%); K: Italian ryegrass, herbicidal effect grade [15]: 0 (Herbicidal rate of 5% or less (almost no effect))
CCCC(=O)Oc1c(C)nn(C)c(=O)c1-c1c(-c2ccc(F)cc2)sc2cc(F)ccc12 [3-002]	5 (Herbicidal rate of 90% or more (almost completely withered))	3 (Herbicidal rate of 40% or more and less than 70%)	3 (Herbicidal rate of 40% or more and less than 70%)	4 (Herbicidal rate of 70% or more and less than 90%)	1 (Herbicidal rate of 5% or more and less than 20%)	0 (Herbicidal rate of 5% or less (almost no effect))	5 (Herbicidal rate of 90% or more (almost completely withered))	4 (Herbicidal rate of 70% or more and less than 90%)	3 (Herbicidal rate of 40% or more and less than 70%)	0 (Herbicidal rate of 5% or less (almost no effect))	4 (Herbicidal rate of 70% or more and less than 90%)	5 (Herbicidal rate of 90% or more (almost completely withered))	3 (Herbicidal rate of 40% or more and less than 70%)	0 (Herbicidal rate of 5% or less (almost no effect))	4 (Herbicidal rate of 70% or more and less than 90%)	5 (Herbicidal rate of 90% or more (almost completely withered))	1 (Herbicidal rate of 5% or more and less than 20%)	–	–	–	–
CSc1ccc(-c2oc3ccc(C)cc3c2-c2c(O)c(C)nn(C)c2=O)cc1 [9-055]	–	–	–	–	–	–	–	–	–	–	–	5 (Herbicidal rate of 90% or more (almost completely withered))	–	–	–	–	–	0 (Herbicidal rate of 5% or less (almost no effect))	0 (Herbicidal rate of 5% or less (almost no effect))	5 (Herbicidal rate of 90% or more (almost completely withered))	P (chickweed) herbicidal effect grade [1, 19]: 5 (Herbicidal rate of 90% or more (almost completely withered)); H (barnyard grass) herbicidal effect grade [2, 19]: 4 (Herbicidal rate of 70% or more and less than 90%); herbicidal effect grade, C: oval-leafed pondweed ([4]; application during weed generation under submerged conditions, amount of applied herbicide 320 g/ha): 3 (Herbicidal rate of 40% or more and less than 70%); R: persian speedwell, herbicidal effect grade [7]: 5 (Herbicidal rate of 90% or more (almost completely withered)); K (Italian ryegrass) herbicidal effect grade [8, 19]: 5 (Herbicidal rate of 90% or more (almost completely withered)); I: wild oat, herbicidal effect grade [9]: 0 (Herbicidal rate of 5% or less (almost no effect)); Herbicidal effect on D (Chinese sprangletop), foliage application [10, 18]: 5 (Herbicidal rate of 90% or more (almost completely withered)); O: lambsquarters, herbicidal effect grade [11]: 4 (Herbicidal rate of 70% or more and less than 90%); Herbicidal effect on E (rice flat sedge), foliage application [13, 18]: 5 (Herbicidal rate of 90% or more (almost completely withered)); G: green foxtail, herbicidal effect grade [14]: 4 (Herbicidal rate of 70% or more and less than 90%); K: Italian ryegrass, herbicidal effect grade [15]: 5 (Herbicidal rate of 90% or more (almost completely withered)); M (velvetleaf) herbicidal effect grade [16, 19]: 5 (Herbicidal rate of 90% or more (almost completely withered)); L (windgrass) herbicidal effect grade [17, 19]: 4 (Herbicidal rate of 70% or more and less than 90%)
